The text below walks through data of patent publication US6737431B2 (Bristol-Myers Squibb Company, priority 2002, dated 2004).

Assay [1] has as its target T1, melatonin ML1a receptor (Homo sapiens, UniProt P48039).
T1 construct: expressed in transfected cells; membrane homogenates
The assay can be described thus: Melatonergic receptor binding, 2-[125I]-iodomelatonin, ML1a. To be noted: NIH-3T3 membranes, 0.1 nM 2-[125I]-iodomelatonin, 37° C. 1 hour. The procedure, abridged: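 Membranes from NIH-3T3 cells stably expressing human ML1a receptor were incubated 1 h at 37° C in Tris/MgCl2/EDTA buffer, pH 7.4, with 0.1 nM 2-[125I]-iodomelatonin. Nonspecific binding defined with 10^−5 M melatonin (final). Binding terminated by filtration with three washes.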

For assay [2], the target named is T2, melatonin ML1b receptor (Homo sapiens, UniProt P49286).
T2 construct: expressed in transfected cells; membrane homogenates
T2 sequence (P49286 1-362): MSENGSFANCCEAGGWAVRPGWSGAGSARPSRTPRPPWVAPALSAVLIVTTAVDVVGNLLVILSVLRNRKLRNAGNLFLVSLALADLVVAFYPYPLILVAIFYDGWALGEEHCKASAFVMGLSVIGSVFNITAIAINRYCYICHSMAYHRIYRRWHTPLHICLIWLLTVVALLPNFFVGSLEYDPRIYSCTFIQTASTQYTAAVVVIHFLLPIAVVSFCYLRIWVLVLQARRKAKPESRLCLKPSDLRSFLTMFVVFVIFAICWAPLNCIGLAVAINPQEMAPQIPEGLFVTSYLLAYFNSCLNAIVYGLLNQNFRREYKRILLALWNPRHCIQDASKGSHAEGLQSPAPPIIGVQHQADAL
The assay can be described thus: Melatonergic receptor binding, 2-[125I]-iodomelatonin, ML1b. To be noted: NIH-3T3 membranes, 0.2 nM 2-[125I]-iodomelatonin, 37° C. 1 hour. The method, boiled down: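 Membranes from NIH-3T3 cells stably expressing the human receptor, incubated with 0.2 nM 2-[125I]-iodomelatonin in Tris/MgCl2/EDTA buffer, pH 7.4, 1 h at 37° C. Nonspecific binding defined with 10^−5 M melatonin (final). Bound radioligand separated by filtration.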

Some results are limits rather than exact numbers.

One may read the IC50 as the midpoint of a concentration-inhibition curve. A lower IC50 goes with higher potency.

T1 sequence (P48039 whole entry): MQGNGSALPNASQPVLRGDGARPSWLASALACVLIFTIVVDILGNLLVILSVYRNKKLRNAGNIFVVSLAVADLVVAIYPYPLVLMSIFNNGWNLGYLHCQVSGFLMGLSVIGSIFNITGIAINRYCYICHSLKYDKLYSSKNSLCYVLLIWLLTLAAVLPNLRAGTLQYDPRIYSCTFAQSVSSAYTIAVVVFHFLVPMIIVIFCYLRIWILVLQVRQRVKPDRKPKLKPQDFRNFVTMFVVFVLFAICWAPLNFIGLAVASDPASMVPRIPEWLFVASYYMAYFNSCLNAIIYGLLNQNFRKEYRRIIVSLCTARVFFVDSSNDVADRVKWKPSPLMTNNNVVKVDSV

Consider `CCCc1nc2cccc(CCCNC(=O)C(C)C)c2o1` [Example 16, 2-Methyl-N-[3-(2-propylbenzoxazol-7-yl)propyl]propanamide], for which the IC50 in assay [1] (Table I) and in assay [2] (Table I) was 10 to 250 nM throughout.
With `CCc1nc2ccc(-c3ccco3)c(CCCNC(=O)C3CC3)c2o1` [Example 75, Cyclopropyl-N-[3-(2-ethyl-6-(2-furyl)benzoxazol-7-yl)propyl]carboxamide], the concentration for half-maximal inhibition (IC50) in assay [1] (Table II) was 10 to 250 nM; in assay [2] (Table II) it was under 10 nM.
Regarding `CCc1nc2ccc(-c3ccccc3)c(CCCNC(=O)C3CC3)c2o1` [Example 57, Cyclopropyl-N-[3-(2-ethyl-6-phenylbenzoxazol-7-yl)propyl]carboxamide], the IC50 was 10 to 250 nM in assay [1] (Table II) and under 10 nM in assay [2] (Table II).
In the case of `CCc1nc2cc(Br)cc(CCCNC(C)=O)c2o1` [Example 68, N-[3-(5-Bromo-2-ethylbenzoxazol-7-yl)propyl]acetamide], the values for the 50% inhibitory concentration (IC50) in assay [1] (Table II) and in assay [2] (Table II) were over 250 nM and 10 to 250 nM, respectively.
On to `CCc1nc2cc(-c3ccc(OC)cc3)cc(CCCNC(C)=O)c2o1` [Example 62, N-{3-[2-Ethyl-5-(4-methoxyphenyl)benzoxazol-7-yl]propyl}acetamide], for which the 50% inhibitory concentration (IC50) in assay [1] (Table II) and in assay [2] (Table II) was 10 to 250 nM throughout.
Consider `CCCc1nc2cccc([C@@H]3C[C@H]3CNC(=O)C3CC3)c2o1` [Example 90, N-{[(1R,2R)-2-(2-Propylbenzoxazol-7-yl)cyclopropyl]methyl}cyclopropylcarboxamide], for which the concentration for half-maximal inhibition (IC50) in assay [1] (Table III) and in assay [2] (Table III) was under 10 nM in each case.
